BindingDB's records for doi:10.1021/jm960395q (Shionogi, 1996)

Experiments:
Phospholipase A2 = Phospholipase A2 (Homo sapiens, UniProt P04054); assay: Inhibition of recombinant human secretory phospholipase A2 (sPLA2), chromogenic screening assay.
[1] = Inhibitory activity against recombinant human secretory phospholipase A2 (s-PLA2) by phosphatidylcholine/deoxycholate assay (PC/DOC).

Chain of Phospholipase A2 (P04054 whole entry): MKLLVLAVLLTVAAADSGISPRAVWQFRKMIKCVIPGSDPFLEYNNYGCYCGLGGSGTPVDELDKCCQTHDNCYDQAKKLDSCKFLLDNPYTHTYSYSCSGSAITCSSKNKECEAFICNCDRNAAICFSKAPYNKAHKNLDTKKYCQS

## CCc1c(C(N)=O)c2c(OCC(=O)O)cccn2c1Cc1cccc2ccccc12 [(1-Carbamoyl-2-ethyl-3-naphthalen-1-ylmethyl-indolizin-8-yloxy)-acetic acid]
Phospholipase A2
  IC50: 0.03 µM
[1]
  IC50: 0.135 µM

## CCc1c(C(=O)C(N)=O)c2c(OCC(=O)OC)cccn2c1CCc1ccccc1 [(1-Aminooxalyl-2-ethyl-3-phenethyl-indolizin-8-yloxy)-acetic acid methyl ester]
Phospholipase A2
  IC50: 0.051 µM

## CCc1c(C(=O)C(N)=O)c2c(OCC(=O)O)cccn2c1Cc1ccccc1 [(1-Aminooxalyl-3-benzyl-2-ethyl-indolizin-8-yloxy)-acetic acid]
Phospholipase A2
  IC50: 0.008 µM
[1]
  IC50: 0.005 µM

## CCc1c(C(=O)C(=O)NC)c2c(OCC(=O)O)cccn2c1Cc1ccccc1 [(3-Benzyl-2-ethyl-1-methylaminooxalyl-indolizin-8-yloxy)-acetic acid]
Phospholipase A2
  IC50: > 50 µM

## CCc1c(C(=O)C(N)=O)c2c(OCC(=O)O)cccn2c1Cc1cccc2ccccc12 [(1-Aminooxalyl-2-ethyl-3-naphthalen-1-ylmethyl-indolizin-8-yloxy)-acetic acid]
Phospholipase A2
  IC50: 0.005 µM
[1]
  IC50: 0.024 µM

## CCc1c(C(=O)C(N)=O)c2c(OCc3ccccn3)cccn2c1Cc1ccccc1-c1ccccc1 [2-[3-Biphenyl-2-ylmethyl-2-ethyl-8-(pyridin-2-ylmethoxy)-indolizin-1-yl]-2-oxo-acetamide]
Phospholipase A2
  IC50: 0.046 µM

## CCc1c(CC(N)=O)c2c(OCC(O)CC)cccn2c1Cc1cccc(Cl)c1 (configuration not stated) [2-[3-(3-Chloro-benzyl)-2-ethyl-8-(2-hydroxy-butoxy)-indolizin-1-yl]-acetamide]
Phospholipase A2
  IC50: 19 µM

## COC(=O)COc1cccn2c(CC3CCCCC3)c(C3CC3)c(C(=O)C(N)=O)c12 [(1-Aminooxalyl-3-cyclohexylmethyl-2-cyclopropyl-indolizin-8-yloxy)-acetic acid methyl ester]
Phospholipase A2
  IC50: 0.043 µM
[1]
  IC50: 0.16 µM

## CCc1c(C(=O)C(N)=O)c2cc(OCCCC(=O)O)ccn2c1Cc1ccccc1-c1ccccc1
Phospholipase A2
  IC50: 0.14 µM

## CCc1c(CC(N)=O)c2c(OCC(=O)O)cccn2c1Cc1cccc(Cl)c1 [[1-Carbamoylmethyl-3-(3-chloro-benzyl)-2-ethyl-indolizin-8-yloxy]-acetic acid]
Phospholipase A2
  IC50: 0.015 µM
[1]
  IC50: 0.052 µM

## COC(=O)COc1cccn2c(Cc3ccccc3-c3ccccc3)c(C(C)C)c(C(=O)C(N)=O)c12 [(1-Aminooxalyl-3-biphenyl-2-ylmethyl-2-isopropyl-indolizin-8-yloxy)-acetic acid methyl ester]
Phospholipase A2
  IC50: 0.035 µM

## CCc1c(C(=O)C(N)=O)c2c(OCC(=O)O)cccn2c1Cc1cccc(OC)c1 [[1-Aminooxalyl-2-ethyl-3-(3-methoxy-benzyl)-indolizin-8-yloxy]-acetic acid]
Phospholipase A2
  IC50: 0.021 µM
[1]
  IC50: 0.03 µM

## COC(=O)COc1cccn2c(Cc3cccc4ccccc34)c(C3CC3)c(C(=O)C(N)=O)c12 [(1-Aminooxalyl-2-cyclopropyl-3-naphthalen-1-ylmethyl-indolizin-8-yloxy)-acetic acid methyl ester]
Phospholipase A2
  IC50: 0.023 µM
[1]
  IC50: 0.2 µM

## NC(=O)Cc1c(C2CC2)c(Cc2ccccc2-c2ccccc2)n2cccc(OCC(=O)O)c12 [(3-Biphenyl-2-ylmethyl-1-carbamoylmethyl-2-cyclopropyl-indolizin-8-yloxy)-acetic acid]
Phospholipase A2
  IC50: 0.013 µM
[1]
  IC50: 0.026 µM

## CCc1c(CC(N)=O)c2c(OCC(=O)O)cccn2c1Cc1ccccc1-c1ccccc1 [(3-Biphenyl-2-ylmethyl-1-carbamoylmethyl-2-ethyl-indolizin-8-yloxy)-acetic acid]
Phospholipase A2
  IC50: 0.014 µM
[1]
  IC50: 0.014 µM

## CCc1c(C(=O)C(N)=O)c2c(OCC(=O)O)cccn2c1Cc1ccccc1[N+](=O)[O-] [[1-Aminooxalyl-2-ethyl-3-(2-nitro-benzyl)-indolizin-8-yloxy]-acetic acid]
Phospholipase A2
  IC50: 0.036 µM
[1]
  IC50: 0.12 µM

## CCc1c(C(=O)C(N)=O)c2c(OCC(=O)O)cccn2c1CC1CCCCC1 [(1-Aminooxalyl-3-cyclohexylmethyl-2-ethyl-indolizin-8-yloxy)-acetic acid]
Phospholipase A2
  IC50: 0.021 µM
[1]
  IC50: 0.03 µM

## COC(=O)COc1cccn2c(Cc3ccccc3-c3ccccc3)c(C)c(C(=O)C(N)=O)c12 [(1-Aminooxalyl-3-biphenyl-2-ylmethyl-2-methyl-indolizin-8-yloxy)-acetic acid methyl ester]
Phospholipase A2
  IC50: 0.008 µM
[1]
  IC50: 0.0014 µM

## CCc1c(C(=O)C(N)=O)c2c(OCC(=O)OC)cccn2c1C/C=C/c1ccccc1 [[1-Aminooxalyl-2-ethyl-3-((E)-3-phenyl-allyl)-indolizin-8-yloxy]-acetic acid methyl ester]
Phospholipase A2
  IC50: 0.038 µM
[1]
  IC50: 0.08 µM

## NC(=O)C(=O)c1c(C2CC2)c(CC2CCCC2)n2cccc(OCC(=O)O)c12 [(1-Aminooxalyl-3-cyclopentylmethyl-2-cyclopropyl-indolizin-8-yloxy)-acetic acid]
Phospholipase A2
  IC50: 0.029 µM
[1]
  IC50: 0.088 µM

## CSc1c(C(=O)C(N)=O)c2c(OCC(=O)O)cccn2c1Cc1ccccc1-c1ccccc1 [(1-Aminooxalyl-3-biphenyl-2-ylmethyl-2-methylsulfanyl-indolizin-8-yloxy)-acetic acid]
Phospholipase A2
  IC50: 0.016 µM

## NC(=O)C(=O)c1c(C2CC2)c(Cc2ccccc2-c2ccccc2)n2cccc(OCCCC(=O)O)c12 [4-(1-Aminooxalyl-3-biphenyl-2-ylmethyl-2-cyclopropyl-indolizin-8-yloxy)-butyric acid]
Phospholipase A2
  IC50: 4.4 µM

## NC(=O)C(=O)c1c(C2CC2)c(Cc2ccccc2-c2ccccc2)n2cccc(OCC(=O)O)c12 [(1-Aminooxalyl-3-biphenyl-2-ylmethyl-2-cyclopropyl-indolizin-8-yloxy)-acetic acid]
Phospholipase A2
  IC50: 0.009 µM
[1]
  IC50: 0.006 µM

## COC(=O)COc1cccn2c(Cc3ccccc3-c3ccccc3)c(C(C)(C)C)c(C(=O)C(N)=O)c12 [(1-Aminooxalyl-3-biphenyl-2-ylmethyl-2-tert-butyl-indolizin-8-yloxy)-acetic acid methyl ester]
Phospholipase A2
  IC50: 0.1 µM

## CCc1c(C(=O)C(N)=O)c2c(OCC(=O)O)cccn2c1Cc1ccccc1Cc1ccccc1 [[1-Aminooxalyl-3-(2-benzyl-benzyl)-2-ethyl-indolizin-8-yloxy]-acetic acid]
Phospholipase A2
  IC50: 0.006 µM
[1]
  IC50: 0.0013 µM

## CCc1c(C(=O)C(N)=O)c2c(OCCCC(=O)O)cccn2c1Cc1ccccc1 [4-(1-Aminooxalyl-3-benzyl-2-ethyl-indolizin-8-yloxy)-butyric acid]
Phospholipase A2
  IC50: 0.2 µM

## CCc1c(C(=O)C(N)=O)c2cc(OCCC(=O)O)ccn2c1Cc1ccccc1-c1ccccc1
Phospholipase A2
  IC50: 0.24 µM

## COc1c(C(=O)C(N)=O)c2c(OCC(=O)O)cccn2c1Cc1ccccc1-c1ccccc1 [(1-Aminooxalyl-3-biphenyl-2-ylmethyl-2-methoxy-indolizin-8-yloxy)-acetic acid]
Phospholipase A2
  IC50: 0.015 µM
[1]
  IC50: 0.013 µM

## CCc1c(C(=O)C(N)=O)c2c(OCC(=O)O)cccn2c1Cc1cccc(Cl)c1 [[1-Aminooxalyl-3-(3-chloro-benzyl)-2-ethyl-indolizin-8-yloxy]-acetic acid]
Phospholipase A2
  IC50: 0.006 µM
[1]
  IC50: 0.003 µM

## CCc1c(C(=O)C(N)=O)c2c(OCCCCC(=O)O)cccn2c1Cc1ccccc1-c1ccccc1 [5-(1-Aminooxalyl-3-biphenyl-2-ylmethyl-2-ethyl-indolizin-8-yloxy)-pentanoic acid]
Phospholipase A2
  IC50: 1.3 µM

## CCc1c(C(=O)C(N)=O)c2c(OCc3ccncc3)cccn2c1Cc1ccccc1-c1ccccc1 [2-[3-Biphenyl-2-ylmethyl-2-ethyl-8-(pyridin-4-ylmethoxy)-indolizin-1-yl]-2-oxo-acetamide]
Phospholipase A2
  IC50: 0.083 µM

## CCc1c(C(=O)C(N)=O)c2c(OCC(=O)O)cccn2c1CC1CCCCCC1 [(1-Aminooxalyl-3-cycloheptylmethyl-2-ethyl-indolizin-8-yloxy)-acetic acid]
Phospholipase A2
  IC50: 0.023 µM
[1]
  IC50: 0.1 µM

## CCc1c(C(=O)C(=O)N(C)C)c2c(OCC(=O)O)cccn2c1Cc1ccccc1 [(3-Benzyl-1-dimethylaminooxalyl-2-ethyl-indolizin-8-yloxy)-acetic acid]
Phospholipase A2
  IC50: > 50 µM

## CCc1c(Cc2ccccc2)c2ccc(OCCCC(=O)O)cn2c1C(=O)C(N)=O [4-(3-Aminooxalyl-1-benzyl-2-ethyl-indolizin-6-yloxy)-butyric acid]
Phospholipase A2
  IC50: 1.1 µM

## CCc1c(CC(N)=O)c2c(OCCCC(=O)O)cccn2c1Cc1ccccc1-c1ccccc1 [4-(3-Biphenyl-2-ylmethyl-1-carbamoylmethyl-2-ethyl-indolizin-8-yloxy)-butyric acid]
Phospholipase A2
  IC50: 0.08 µM

## CCc1c(C(=O)C(N)=O)c2cc(OCC(=O)O)ccn2c1Cc1ccccc1-c1ccccc1
Phospholipase A2
  IC50: 1.4 µM

## Cc1c(C(=O)C(N)=O)c2c(OCC(=O)O)cccn2c1CC12C[C@H]3C[C@@H](C1)C[C@@H](C2)C3 [(3-Adamantan-1-ylmethyl-1-aminooxalyl-2-methyl-indolizin-8-yloxy)-acetic acid]
Phospholipase A2
  IC50: 0.12 µM

## CCc1c(C(=O)C(N)=O)c2c(OCCCC(=O)O)cccn2c1CC1CCCCC1 [4-(1-Aminooxalyl-3-cyclohexylmethyl-2-ethyl-indolizin-8-yloxy)-butyric acid]
Phospholipase A2
  IC50: 3.4 µM

## COC(=O)COc1cccn2c(Cc3ccccc3-c3ccccc3)c(C3CCCC3)c(C(=O)C(N)=O)c12 [(1-Aminooxalyl-3-biphenyl-2-ylmethyl-2-cyclopentyl-indolizin-8-yloxy)-acetic acid methyl ester]
Phospholipase A2
  IC50: 0.28 µM

## CCc1c(C(=O)C(N)=O)c2c(OCC(=O)OC)cccn2c1Cc1ccccc1-c1ccccc1 [(1-Aminooxalyl-3-biphenyl-2-ylmethyl-2-ethyl-indolizin-8-yloxy)-acetic acid methyl ester]
Phospholipase A2
  IC50: 0.017 µM

## CCCCCc1c(CC)c(C(=O)C(N)=O)c2c(OCC(=O)O)cccn12 [(1-Aminooxalyl-2-ethyl-3-pentyl-indolizin-8-yloxy)-acetic acid]
Phospholipase A2
  IC50: 0.062 µM

## CCc1c(C(=O)C(N)=O)c2c(OCC(=O)O)cccn2c1CCc1ccccc1 [(1-Aminooxalyl-2-ethyl-3-phenethyl-indolizin-8-yloxy)-acetic acid]
Phospholipase A2
  IC50: 0.051 µM

## CCc1c(C(=O)C(N)=O)c2c(OCC(=O)O)cccn2c1Cc1cc(C(C)(C)C)cc(C(C)(C)C)c1 [[1-Aminooxalyl-3-(3,5-di-tert-butyl-benzyl)-2-ethyl-indolizin-8-yloxy]-acetic acid]
Phospholipase A2
  IC50: 6.6 µM
